± gives the standard deviation of the averaged measurements.
How the values were obtained:
Test in all cases: level (log10 ratio to DMSO vehicle control); higher = higher biomarker level / cell amount than vehicle control
[1] = compound: OCC(F)(F)C(F)(F)C(F)(F)C(F)(F)C(F)(F)C(F)(F)C(F)(F)C(F)(F)CO [1H,1H,10H,10H-Perfluorodecane-1,10-diol]; conditions: in DMSO
Procedure: (§1)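 BioMAP Diversity Plus panel of 12 human primary cell co-culture systems (3C, 4H, LPS, SAg, BT, BF4T, BE3C, CASM3C, HDF3CGF, KF3CT, MyoF, Mphg). Compounds were added 1 h before stimulation and left for 24 h (MyoF 48 h; BT 72 h for soluble read-outs or 6 d for IgG). Biomarkers were read by ELISA, cytotoxicity by SRB, PBMC viability and proliferation by Alamar Blue. Each well value was divided by the mean of 8 DMSO control wells on the same plate and log10 transformed; duplicate blinded samples were tested at 4 concentrations.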

[2] = compound: C=CC(=O)OCC(F)(F)C(F)(F)C(F)(F)C(F)(F)C(F)(F)C(F)(F)C(F)(F)C(F)F [1H,1H,9H-Perfluorononyl acrylate]; conditions: in DMSO
Procedure: as §1

[3] = compound: OC(C(F)(F)F)(C(F)(F)F)C(O)(C(F)(F)F)C(F)(F)F [Perfluoropinacol]; conditions: in DMSO
Procedure: as §1

[4] = compound: O=S(=O)(O)CCC(F)(F)C(F)(F)C(F)(F)C(F)(F)F [4:2 Fluorotelomer sulfonic acid]; conditions: in DMSO
Procedure: as §1

[5] = compound: OCCC(F)(F)C(F)(F)C(F)(F)C(F)(F)C(F)(F)C(F)(F)C(F)(F)C(F)(F)F [8:2 Fluorotelomer alcohol]; conditions: 6700 nM; in DMSO
Procedure: as §1

[6] = compound: O=C(O)C(F)(F)C(F)(F)C(=O)O [Tetrafluorosuccinic acid]; conditions: in DMSO
Procedure: as §1

[7] = compound: O=C(O)C(F)(F)C(F)(F)C(F)(F)C(F)(F)C(F)(F)C(F)(F)C(F)(F)F [Ammonium perfluorooctanoate]; conditions: in DMSO
Procedure: as §1

SAg:CCL2/MCP-1
level (log10) ([1]; 6700 nM): -0.0145 ± 0.0092 | level (log10) ([1]; 20000 nM): -0.02 ± 0.0042 | level (log10) ([1]; 60000 nM): -0.008 | level (log10) ([2]; 6700 nM): -0.0425 ± 0.015 | level (log10) ([2]; 20000 nM): -0.0565 ± 0.005 | level (log10) ([2]; 60000 nM): -0.033 ± 0.13 | level (log10) ([3]; 6700 nM): 0.078 ± 0.018 | level (log10) ([3]; 20000 nM): -0.096 ± 0.0085 | level (log10) ([4]; 6700 nM): 0.007 ± 0.0085 | level (log10) ([4]; 20000 nM): 0.0185 ± 0.0035 | level (log10) ([4]; 60000 nM): 0.0105 ± 0.013 | level (log10) [5]: 0.0025 ± 0.0035 | level (log10) ([6]; 6700 nM): -0.006 ± 0.02 | level (log10) ([6]; 20000 nM): -0.0095 ± 0.0035 | level (log10) ([6]; 60000 nM): -0.0085 ± 0.0064 | level (log10) ([7]; 6700 nM): -0.0035 ± 0.0035 | level (log10) ([7]; 20000 nM): -0.007 ± 0.011 | level (log10) ([7]; 60000 nM): 0.01 ± 0.034

4H:CD106/VCAM-1
level (log10) ([1]; 6700 nM): -0.0445 ± 0.011 | level (log10) ([1]; 20000 nM): -0.049 ± 0.03 | level (log10) ([1]; 60000 nM): -0.166 | level (log10) ([2]; 6700 nM): -0.02 ± 0.0071 | level (log10) ([2]; 20000 nM): -0.023 ± 0.0028 | level (log10) ([2]; 60000 nM): -0.0425 ± 0.03 | level (log10) ([3]; 6700 nM): -0.043 ± 0.018 | level (log10) ([3]; 20000 nM): -0.22 ± 0.02 | level (log10) ([4]; 6700 nM): -0.039 ± 0.037 | level (log10) ([4]; 20000 nM): 0.014 ± 0.0057 | level (log10) ([4]; 60000 nM): -0.0035 ± 0.023 | level (log10) [5]: -0.008 ± 0.013 | level (log10) ([6]; 6700 nM): 0.029 ± 0.033 | level (log10) ([6]; 20000 nM): 0.0065 ± 0.005 | level (log10) ([6]; 60000 nM): 0.0485 ± 0.018 | level (log10) ([7]; 6700 nM): 0.0225 ± 0.0021 | level (log10) ([7]; 20000 nM): 0.036 ± 0.0085 | level (log10) ([7]; 60000 nM): 0.0215 ± 0.026

LPS:sTNF-alpha
level (log10) ([1]; 6700 nM): -0.0915 ± 0.069 | level (log10) ([1]; 20000 nM): -0.043 ± 0.0085 | level (log10) ([1]; 60000 nM): -0.023 | level (log10) ([2]; 6700 nM): 0.085 ± 0.028 | level (log10) ([2]; 20000 nM): 0.0465 ± 0.042 | level (log10) ([2]; 60000 nM): 0.004 ± 0.086 | level (log10) ([3]; 6700 nM): -0.0005 ± 0.025 | level (log10) ([3]; 20000 nM): 0.008 ± 0.03 | level (log10) ([4]; 6700 nM): -0.0105 ± 0.011 | level (log10) ([4]; 20000 nM): -0.007 ± 0.0014 | level (log10) ([4]; 60000 nM): -0.0065 ± 0.0035 | level (log10) [5]: 0.0175 ± 0.03 | level (log10) ([6]; 6700 nM): -0.0025 ± 0.018 | level (log10) ([6]; 20000 nM): 0.0025 ± 0.011 | level (log10) ([6]; 60000 nM): 0.009 ± 0.011 | level (log10) ([7]; 6700 nM): 0.004 ± 0.0085 | level (log10) ([7]; 20000 nM): 0.001 ± 0.0057 | level (log10) ([7]; 60000 nM): -0.0135 ± 0.00071

3C:CXCL8/IL-8
level (log10) ([1]; 6700 nM): -0.013 ± 0.035 | level (log10) ([1]; 20000 nM): -0.007 ± 0.024 | level (log10) ([1]; 60000 nM): 0.03 | level (log10) ([2]; 6700 nM): 0.001 ± 0.03 | level (log10) ([2]; 20000 nM): 0.02 ± 0.023 | level (log10) ([2]; 60000 nM): 0.029 ± 0.033 | level (log10) ([3]; 6700 nM): 0.0215 ± 0.012 | level (log10) ([3]; 20000 nM): -0.0255 ± 0.026 | level (log10) ([4]; 6700 nM): -0.0175 ± 0.04 | level (log10) ([4]; 20000 nM): -0.011 ± 0.072 | level (log10) ([4]; 60000 nM): 0.035 ± 0.1 | level (log10) [5]: -0.003 ± 0.034 | level (log10) ([6]; 6700 nM): -0.0265 ± 0.015 | level (log10) ([6]; 20000 nM): -0.0235 ± 0.012 | level (log10) ([6]; 60000 nM): -0.0005 ± 0.049 | level (log10) ([7]; 6700 nM): 0.0015 ± 0.0021 | level (log10) ([7]; 20000 nM): 0.023 ± 0.027 | level (log10) ([7]; 60000 nM): 0.085 ± 0.065

SAg:CXCL9/MIG
level (log10) ([1]; 6700 nM): -0.022 ± 0.0042 | level (log10) ([1]; 20000 nM): 0.0005 ± 0.019 | level (log10) ([1]; 60000 nM): -0.021 | level (log10) ([2]; 6700 nM): -0.0135 ± 0.0021 | level (log10) ([2]; 20000 nM): 0.003 ± 0.0099 | level (log10) ([2]; 60000 nM): -0.0155 ± 0.0078 | level (log10) ([3]; 6700 nM): -0.002 ± 0.0028 | level (log10) ([3]; 20000 nM): -0.005 ± 0.0014 | level (log10) ([4]; 6700 nM): -0.0055 ± 0.013 | level (log10) ([4]; 20000 nM): -0.0075 ± 0.0064 | level (log10) ([4]; 60000 nM): 0.0035 ± 0.005 | level (log10) [5]: -0.006 ± 0.0014 | level (log10) ([6]; 6700 nM): -0.006 ± 0.0014 | level (log10) ([6]; 20000 nM): 0.003 | level (log10) ([6]; 60000 nM): 0.013 ± 0.0099 | level (log10) ([7]; 6700 nM): -0.004 | level (log10) ([7]; 20000 nM): 0.003 ± 0.013 | level (log10) ([7]; 60000 nM): 0.009 ± 0.0085

BE3C:CXCL8/IL-8
level (log10) ([1]; 6700 nM): -0.078 ± 0.0099 | level (log10) ([1]; 20000 nM): -0.098 ± 0.025 | level (log10) ([1]; 60000 nM): -0.127 | level (log10) ([2]; 6700 nM): -0.0165 ± 0.016 | level (log10) ([2]; 20000 nM): -0.012 ± 0.013 | level (log10) ([2]; 60000 nM): -0.004 ± 0.024 | level (log10) ([3]; 6700 nM): -0.049 ± 0.0014 | level (log10) ([3]; 20000 nM): -0.203 ± 0.021 | level (log10) ([4]; 6700 nM): 0.0165 ± 0.023 | level (log10) ([4]; 20000 nM): -0.009 ± 0.0085 | level (log10) ([4]; 60000 nM): 0.0175 ± 0.0064 | level (log10) [5]: -0.054 ± 0.0042 | level (log10) ([6]; 6700 nM): 0.0325 ± 0.052 | level (log10) ([6]; 20000 nM): 0.0315 ± 0.071 | level (log10) ([6]; 60000 nM): 0.0525 ± 0.0064 | level (log10) ([7]; 6700 nM): 0.043 ± 0.021 | level (log10) ([7]; 20000 nM): 0.0095 ± 0.039 | level (log10) ([7]; 60000 nM): -0.066 ± 0.04

BE3C:HLA-DR
level (log10) ([1]; 6700 nM): -0.0495 ± 0.019 | level (log10) ([1]; 20000 nM): -0.174 ± 0.022 | level (log10) ([1]; 60000 nM): -0.517 | level (log10) ([2]; 6700 nM): -0.0215 ± 0.029 | level (log10) ([2]; 20000 nM): -0.01 ± 0.021 | level (log10) ([2]; 60000 nM): -0.0305 ± 0.012 | level (log10) ([3]; 6700 nM): -0.0145 ± 0.0064 | level (log10) ([3]; 20000 nM): -0.0565 ± 0.019 | level (log10) ([4]; 6700 nM): -0.013 ± 0.0085 | level (log10) ([4]; 20000 nM): 0.003 ± 0.0042 | level (log10) ([4]; 60000 nM): -0.0225 ± 0.0021 | level (log10) [5]: -0.02 | level (log10) ([6]; 6700 nM): -0.027 ± 0.0028 | level (log10) ([6]; 20000 nM): -0.0045 ± 0.0035 | level (log10) ([6]; 60000 nM): 0.004 ± 0.0014 | level (log10) ([7]; 6700 nM): -0.019 ± 0.0071 | level (log10) ([7]; 20000 nM): -0.0325 ± 0.012 | level (log10) ([7]; 60000 nM): -0.068 ± 0.017

SAg:PBMC Cytotoxicity
level (log10) ([1]; 6700 nM): 0.009 | level (log10) ([1]; 20000 nM): 0.0155 ± 0.036 | level (log10) ([1]; 60000 nM): -0.155 | level (log10) ([2]; 6700 nM): -0.015 ± 0.0057 | level (log10) ([2]; 20000 nM): -0.0795 ± 0.0092 | level (log10) ([2]; 60000 nM): -0.194 ± 0.1 | level (log10) ([3]; 6700 nM): 0.046 ± 0.033 | level (log10) ([3]; 20000 nM): 0.0855 ± 0.0021 | level (log10) ([4]; 6700 nM): 0.0015 ± 0.013 | level (log10) ([4]; 20000 nM): -0.007 ± 0.031 | level (log10) ([4]; 60000 nM): 0.02 ± 0.0014 | level (log10) [5]: -0.0295 ± 0.012 | level (log10) ([6]; 6700 nM): -0.002 ± 0.048 | level (log10) ([6]; 20000 nM): 0.0115 ± 0.013 | level (log10) ([6]; 60000 nM): 0.039 ± 0.013 | level (log10) ([7]; 6700 nM): 0.011 ± 0.035 | level (log10) ([7]; 20000 nM): 0.049 ± 0.011 | level (log10) ([7]; 60000 nM): 0.052 ± 0.04
